In US8703179B2, “Mucosal formulation” (Kimberly-Clark Worldwide, Inc., priority 2006, dated 2014):
Converted amounts (≈) assume the structure as drawn. Read-outs that look alike come from different tables or passages of the source.

Tests used:
Format in all cases: cell-based
[1] = system: Lactobacillus acidophilus; assay: Growth inhibition (minimum inhibitory concentration, gross turbidity); details: read-out: Minimum Inhibitory Concentration L. acidophilus
Method: (§1) The ability of the phosphocholine derivatives of Examples 1-2 to inhibit growth of Candida albicans, Staphylococcus aureus, Lactobacillus acidophilus, and Gardnerella vaginale was tested. Each phosphocholine derivative (at concentrations ranging from 0 to 500 micrograms per milliliter) was dissolved into a broth media and 6 wt. % ethanol. Thereafter, 0.1 milliliter of each solution was inoculated in 1.0 milliliter of a growth media containing the microorganism of interest. The growth media was TSB media for Candida albicans and Staphylococcus aureus, MRS broth for Lactobacillus acidophilus, and NYC-3 broth enriched proteose peptone for Gardnerella vaginale. The concentration of the microorganism in the growth media was 10^4 colony forming units (“CFU”) per milliliter.
(§2) Thereafter, the gross turbidity of the media was monitored at 24, 48, and 72 hours time intervals. Gross turbidity is an indicative of growth inhibition and is determined using visual determination or a spectrophotometer. The concentration of the phosphocholine derivative at which no turbidity is detected is designated as the “minimum inhibitory concentration.” Phosphocholine derivatives having lower minimum inhibitory concentrations are generally considered to have better antimicrobial efficacy.

[2] = system: Staphylococcus aureus; assay: as above; details: read-out: Minimum Inhibitory Concentration S. aureus
Method: as §1, §2

[3] = system: Gardnerella vaginale; assay: as above; details: read-out: Minimum Inhibitory Concentration G. vaginale
Method: as §1, §2

[4] = system: Candida albicans; assay: as above; details: read-out: Minimum Inhibitory Concentration C. albicans
Method: as §1, §2

[5] = system: L. acidophilus (lactobacilli); assay: Time-dependent inhibition (organism count); details: for Organism Count / Percent Reduction: L. acidophilus
Text: (§3) Hexadecyl phosphocholine (“BRB-1”) was studied for inhibition of Candida albicans (C. albicans), Staphylococcus aureus (S. aureus), and lactobacilli. The results are shown below in Tables 3-4. Tetradecyl phosphocholine (“BRB-3”) was also studied for inhibition of C. albicans aureus, and lactobaccili.

[6] = system: Candida albicans (C. albicans); assay: Time-dependent inhibition (organism count)
Text: as §3

[7] = system: Staphylococcus aureus (S. aureus); assay: Time-dependent inhibition (organism count)
Text: as §3

[8] = MRS broth, 10^4 CFU/ml, turbidity at 24, 48, 72 hours
[9] = TSB media, 10^4 CFU/ml, turbidity at 24, 48, 72 hours
[10] = NYC-3 broth, 10^4 CFU/ml, turbidity at 24, 48, 72 hours

Work on `CCCCCCCCCCCCCCOP(=O)([O-])OCC[N+](C)(C)C` yielded an MIC [1, 8] of 250 µg/mL (≈ 659 µM), an MIC [2, 9] of 250 µg/mL (≈ 659 µM) and an MIC [3, 10] of 250 µg/mL (≈ 659 µM). The MIC [4, 9] was 62.5 µg/mL (≈ 165 µM).

Work on `CCCCCCCCCCCCCCCCOP([O-])(=S)OCC[N+](C)(C)C` (stereo not shown) yielded an MIC ([1]; 72 h) of 31.2 µg/mL (≈ 73.8 µM), an MIC ([2]; 72 h) of 31.2 µg/mL (≈ 73.8 µM) and an MIC ([3]; 72 h) of 31.2 µg/mL (≈ 73.8 µM). The MIC ([4]; 72 h) was 31.2 µg/mL (≈ 73.8 µM).

`CCCCCCCCCCCCCCCCOCC(O)COP(=O)([O-])OCC[N+](C)(C)C` (racemic) was tested, and the MIC [1, 8] was 250 µg/mL (≈ 519 µM), the MIC [2, 9] was 250 µg/mL (≈ 519 µM) and the MIC [3, 10] was 250 µg/mL (≈ 519 µM). For the same compound, the MIC [4, 9] was 125 µg/mL (≈ 260 µM).

`CCCCCCCCCCCCCCCCOP(=O)([O-])OCC[N+](C)(C)C` [BRB-1, hexadecyl phosphocholine] gave an MIC [1, 8] of 125 µg/mL (≈ 307 µM), an MIC [2, 9] of 125 µg/mL (≈ 307 µM) and an MIC [3, 10] of 31.2 µg/mL (≈ 76.7 µM). For the same compound, the MIC [4, 9] was 15.6 µg/mL (≈ 38.3 µM), the “Organism Count” value ([5]; 1 μg/ml, 0 Hour) was 7.0 × 10^4 CFU/ml and the “Percent Reduction” value ([5]; 1 μg/ml, 0 Hour) was 6.7%. For the same compound, the “Organism Count” value ([5]; 1 μg/ml, 1 Hour) was 8.6 × 10^4 CFU/ml, the “Organism Count” value ([5]; 1 μg/ml, 2 Hours) was 7.6 × 10^4 CFU/ml and the “Organism Count” value ([5]; 1 μg/ml, 4 Hours) was 6.7 × 10^4 CFU/ml. For the same compound, the “Percent Reduction” value ([5]; 1 μg/ml, 4 Hours) was 10.7%, the “Organism Count” value ([5]; 10 μg/ml, 0 Hour) was 1.8 × 10^5 CFU/ml and the “Percent Reduction” value ([5]; 10 μg/ml, 0 Hour) was 18.2%. The “Organism Count” value ([5]; 10 μg/ml, 1 Hour) was 20 CFU/ml, the “Percent Reduction” value ([5]; 10 μg/ml, 1 Hour) was 99.99% and the “Percent Reduction” value ([5]; 10 μg/ml, 6 Hours) was 99.99%. For the same compound, the “Organism Count” value ([5]; 100 μg/ml, 0 Hour) was 1.5 × 10^5 CFU/ml, the “Percent Reduction” value ([5]; 100 μg/ml, 0 Hour) was 31.8% and the “Organism Count” value ([5]; 100 μg/ml, 1 Hour) was 70 CFU/ml. The “Percent Reduction” value ([5]; 100 μg/ml, 1 Hour) was 99.97%, the “Percent Reduction” value ([5]; 100 μg/ml, 6 Hours) was 99.99% and the “Organism Count” value ([6]; 10 μg/ml, 0 Hour) was 8.4 × 10^5 CFU/ml. The “% Reduction” value ([6]; 10 μg/ml, 1 Hour) was 68.0%, the “Organism Count” value ([6]; 10 μg/ml, 1 Hour) was 2.3 × 10^5 CFU/ml and the “% Reduction” value ([6]; 10 μg/ml, 2 Hours) was 99.7%. The “Organism Count” value ([6]; 10 μg/ml, 2 Hours) was 2.1 × 10^3 CFU/ml, the “% Reduction” value ([6]; 10 μg/ml, 4 Hours) was 99.99% and the “Organism Count” value ([6]; 10 μg/ml, 4 Hours) was 50 CFU/ml. For the same compound, the “% Reduction” value ([6]; 100 μg/ml, 0 Hour) was 27.5%, the “Organism Count” value ([6]; 100 μg/ml, 0 Hour) was 2.9 × 10^5 CFU/ml and the “% Reduction” value ([6]; 100 μg/ml, 1 Hour) was 70.0%. For the same compound, the “Organism Count” value ([6]; 100 μg/ml, 1 Hour) was 1.2 × 10^5 CFU/ml, the “% Reduction” value ([6]; 100 μg/ml, 2 Hours) was 99.8% and the “Organism Count” value ([6]; 100 μg/ml, 2 Hours) was 8.0 × 10^2 CFU/ml. For the same compound, the “% Reduction” value ([6]; 100 μg/ml, 4 Hours) was 99.9%, the “Organism Count” value ([6]; 100 μg/ml, 4 Hours) was 3.8 × 10^2 CFU/ml and the “% Reduction” value ([7]; 10 μg/ml, 0 Hour) was 18.5%. For the same compound, the “Organism Count” value ([7]; 10 μg/ml, 0 Hour) was 5.3 × 10^4 CFU/ml, the “% Reduction” value ([7]; 10 μg/ml, 1 Hour) was 98.9% and the “Organism Count” value ([7]; 10 μg/ml, 1 Hour) was 7.3 × 10^2 CFU/ml. The “% Reduction” value ([7]; 10 μg/ml, 2 Hours) was 99.91%, the “Organism Count” value ([7]; 10 μg/ml, 2 Hours) was 60 CFU/ml and the “% Reduction” value ([7]; 10 μg/ml, 4 Hours) was 99.98%. For the same compound, the “% Reduction” value ([7]; 100 μg/ml, 0 Hour) was 39.2%, the “Organism Count” value ([7]; 100 μg/ml, 0 Hour) was 4.8 × 10^4 CFU/ml and the “% Reduction” value ([7]; 100 μg/ml, 1 Hour) was 99.8%. The “Organism Count” value ([7]; 100 μg/ml, 1 Hour) was 1.4 × 10^2 CFU/ml, the “% Reduction” value ([7]; 100 μg/ml, 2 Hours) was 99.97% and the “Organism Count” value ([7]; 100 μg/ml, 2 Hours) was 20 CFU/ml. For the same compound, the “% Reduction” value ([7]; 100 μg/ml, 4 Hours) was 99.99%.

tetradecyl phosphocholine [BRB-3] was tested, and the “Organism Count” value ([5]; 10 μg/ml, 0 Hour) was 3.1 × 10^5 CFU/ml, the “Percent Reduction” value ([5]; 10 μg/ml, 0 Hour) was 16.2% and the “Organism Count” value ([5]; 10 μg/ml, 1 Hour) was 2.9 × 10^5 CFU/ml. For the same compound, the “Percent Reduction” value ([5]; 10 μg/ml, 1 Hour) was 21.6%, the “Organism Count” value ([5]; 10 μg/ml, 2 Hours) was 2.4 × 10^5 CFU/ml and the “Percent Reduction” value ([5]; 10 μg/ml, 2 Hours) was 35.1%. The “Organism Count” value ([5]; 10 μg/ml, 4 Hours) was 2.3 × 10^5 CFU/ml, the “Percent Reduction” value ([5]; 10 μg/ml, 4 Hours) was 37.8% and the “Organism Count” value ([5]; 100 μg/ml, 0 Hour) was 4.5 × 10^5 CFU/ml. For the same compound, the “Percent Reduction” value ([5]; 100 μg/ml, 0 Hour) was 88.5%, the “Percent Reduction” value ([5]; 100 μg/ml, 1 Hour) was 99.99% and the “Inhibition of lactobacilli (in words)” value ([5]; Tables 4 and 5, ascribed to organism instability in the media and the protocol) was “some inhibtion”. For the same compound, the “% Reduction” value ([6]; 10 μg/ml, 0 Hour) was 2.7%, the “Organism Count” value ([6]; 10 μg/ml, 0 Hour) was 7.1 × 10^4 CFU/ml and the “% Reduction” value ([6]; 10 μg/ml, 1 Hour) was 20.5%. For the same compound, the “Organism Count” value ([6]; 10 μg/ml, 1 Hour) was 5.8 × 10^4 CFU/ml, the “% Reduction” value ([6]; 10 μg/ml, 2 Hours) was 30.1% and the “Organism Count” value ([6]; 10 μg/ml, 2 Hours) was 5.1 × 10^4 CFU/ml. For the same compound, the “% Reduction” value ([6]; 10 μg/ml, 4 Hours) was 52.0%, the “Organism Count” value ([6]; 10 μg/ml, 4 Hours) was 3.5 × 10^4 CFU/ml and the “% Reduction” value ([6]; 100 μg/ml, 0 Hour) was 26.0%. The “Organism Count” value ([6]; 100 μg/ml, 0 Hour) was 7.4 × 10^4 CFU/ml, the “% Reduction” value ([6]; 100 μg/ml, 1 Hour) was 43.0% and the “Organism Count” value ([6]; 100 μg/ml, 1 Hour) was 5.7 × 10^4 CFU/ml. For the same compound, the “% Reduction” value ([6]; 100 μg/ml, 2 Hours) was 51.0%, the “Organism Count” value ([6]; 100 μg/ml, 2 Hours) was 4.9 × 10^4 CFU/ml and the “% Reduction” value ([6]; 100 μg/ml, 4 Hours) was 46.0%. The “Organism Count” value ([6]; 100 μg/ml, 4 Hours) was 5.4 × 10^4 CFU/ml, the “Organism Count” value ([7]; 10 μg/ml, 0 Hour) was 1.4 × 10^5 CFU/ml and the “% Reduction” value ([7]; 10 μg/ml, 1 Hour) was 18.3%. The “Organism Count” value ([7]; 10 μg/ml, 1 Hour) was 9.8 × 10^4 CFU/ml, the “% Reduction” value ([7]; 10 μg/ml, 2 Hours) was 25.8% and the “Organism Count” value ([7]; 10 μg/ml, 2 Hours) was 8.9 × 10^4 CFU/ml. The “% Reduction” value ([7]; 10 μg/ml, 4 Hours) was 38.3%, the “Organism Count” value ([7]; 10 μg/ml, 4 Hours) was 7.4 × 10^4 CFU/ml and the “% Reduction” value ([7]; 100 μg/ml, 0 Hour) was 7.1%. The “Organism Count” value ([7]; 100 μg/ml, 0 Hour) was 1.3 × 10^5 CFU/ml, the “% Reduction” value ([7]; 100 μg/ml, 1 Hour) was 97.9% and the “Organism Count” value ([7]; 100 μg/ml, 1 Hour) was 2.9 × 10^3 CFU/ml. The “% Reduction” value ([7]; 100 μg/ml, 2 Hours) was 99.9%, the “Organism Count” value ([7]; 100 μg/ml, 2 Hours) was 1.1 × 10^2 CFU/ml and the “% Reduction” value ([7]; 100 μg/ml, 4 Hours) was 99.99%.
